# Assay results published in article PMC9963887, “Towards Radiolabeled EGFR-Specific Peptides: Alternatives to GE11” (Pharmaceuticals, 2023).
# Where two headings read alike, the source gives them in different places. Where a SMILES comes first, the peptide text is derived from it. Bridges are numbered along the chain shown (N, C = ends). [ ]: non-standard residue; d: D form. The star is where a group is joined. X1 = O=C(O)CN1CCN(CC(=O)O)CCN([C@H](CCC(=O)*)C(=O)O)CC1; PEG6 = NCCOCCOCCOCCOCCOCCOCCC(=O)O
# Key:
# [1] = stability towards degradation by human serum peptidases; format: in vitro ADME; settings: pooled human serum, 37 °C, incubation up to 90 min, intact tracer by radio-HPLC; read-out: Calculated Half-Life in Human Serum
# Protocol: For the applicability of radiopeptides, their stability towards degradation by human serum peptidases is of importance as a low stability towards metabolization interferes with successful target visualization. Thus, the stability of the radiopeptides [^68Ga]Ga-1–[^68Ga]Ga-11 against degradation was determined by incubation with commercially available pooled human serum of healthy donors at 37 °C for 0, 15, 30, 45, 60, 75 and 90 min. At these time points, the fraction of the intact radiopeptides was again determined by analytical radio-HPLC, and the serum half-life of each radioligand was calculated.
# Determination of the stability of [^68Ga]Ga-1–[^68Ga]Ga-11 towards degradation by human serum peptidases. A sample of the respective radiolabeled peptide (125 µL, 10–30 MBq, pH 7.4) was added to commercially available pooled human serum (500 µL) and warmed to 37 °C. At defined time-points (t = 0, […]), 75 µL of the mixture were added to 75 µL ice-cold ethanol, further cooled on ice for 5 min, and centrifuged at 13,000 rpm (12,100× g) for 90 s. The supernatant was collected, the activity of the supernatant and the precipitate measured, where after the supernatant was analyzed by analytical radio-HPLC and the amount of intact tracer was quantified. Experiments were performed thrice for each radioligand.
# [2] = logD(7.4) determination by partition between 1-octanol and phosphate buffer pH 7.4; format: physicochemical
# Excerpt: For peptidic radiotracers, hydrophilicity is an important parameter as it can enable the initial assessment of the route by which the radioligand is metabolized and excreted. The commonly determined measure for the hydrophilicity/lipophilicity profile of a radiotracer is the determination of its logD(7.4) value and is investigated by partition experiments between an aqueous phosphate buffer phase at pH 7.4 and 1-octanol. For [^68Ga]Ga-1–[^68Ga]Ga-11, logD(7.4) values of −3.44 ± 0.08 ([^68Ga]Ga-1), −3.51 ± 0.22 ([^68Ga]Ga-2), −3.92 ± 0.09 ([^68Ga]Ga-3), −4.01 ± 0.13 ([^68Ga]Ga-4), −3.91 ± 0.06 ([^68Ga]Ga-5), −3.86 ± 0.11 ([^68Ga]Ga-6), −3.03 ± 0.20 ([^68Ga]Ga-7), −3.16 ± 0.11 ([^68Ga]Ga-8), −2.93 ± 0.08 ([^68Ga]Ga-9), −3.92 ± 0.09 ([^68Ga]Ga-10) and −3.98 ± 0.06 ([^68Ga]Ga-11) were obtained in these partition experiments. This high hydrophilicity of the tracers can be considered beneficial, as it should result in low, non-specific liver accumulation of the agents. This is advantageous with regard to the visualization of malignant liver lesions (especially hepatocellular carcinomas (HCCs) and liver metastases of colon carcinoma), which mostly overexpress the EGFR [46, 47] and, thus, represent an important area of application of an EGFR-specific peptidic radiotracer.
# Determination of the logD(7.4) values of [^68Ga]Ga-1–[^68Ga]Ga-11. The aqueous phasepH7.4/1-octanol partition coefficient (logD(7.4)) of the developed radiotracers was determined by addition of a solution of the respective radiolabeled peptide (5 µL, 0.5–2 MBq) to a mixture of 1-octanol (800 µL) and phosphate buffer (0.05 M, pH 7.4, 795 µL). The mixtures were vigorously shaken for 5 min on a mechanical shaker and subsequently centrifuged at 13,000 rpm (12,100× g) for 2 min to achieve complete phase separation. 125 µL of each phase were taken and the amount of radioactivity in each phase was determined by γ-counting. Experiments were performed thrice, each in triplicate.
# [3] = 1-octanol / phosphate buffer 0.05 M, read-out: logD(7.4)
Compound,half-life [1],"logD [2, 3]",logD [2]
"C[C@@H](O)[C@H](NC(=O)[C@H](CCC(N)=O)NC(=O)[C@H](CC(=O)O)NC(=O)[C@H](CO)NC(=O)[C@@H](NC(=O)[C@H](Cc1c[nH]cn1)NC(=O)CCOCCOCCOCCOCCOCCOCCNC(=O)CC[C@H](C(=O)O)N1CCN(CC(=O)O)CCN(CC(=O)O)CC1)[C@@H](C)O)C(=O)N[C@@H](CC(N)=O)C(=O)O [[^68Ga]Ga-4, metal not drawn] ({X1-PEG6}-HTSDQTN-OH)",40.5 ± 0.645 h,-4.01 ± 0.13,
"N=C(N)NCCC[C@H](NC(=O)[C@@H](N)CCC(N)=O)C(=O)N[C@@H](Cc1c[nH]cn1)C(=O)N[C@@H](CCCCN)C(=O)N1CCC[C@H]1C(=O)N[C@@H](CCCNC(=N)N)C(=O)N[C@@H](CCC(=O)O)C(=O)NCCOCCOCCOCCOCCOCCOCCC(=O)N[C@@H](CCCCNC(=O)CC[C@H](C(=O)O)N1CCN(CC(=O)O)CCN(CC(=O)O)CC1)C(N)=O [[^68Ga]Ga-5, metal not drawn] (H-QRHKPRE[PEG6]K(X1)-NH2)",,-3.91 ± 0.06,
"CC(C)C[C@H](NC(=O)[C@H](Cc1c[nH]c2ccccc12)NC(=O)[C@H](Cc1ccccc1)NC(=O)[C@H](CCC(N)=O)NC(=O)[C@H](C)NC(=O)[C@H](CO)NC(=O)[C@H](CC(=O)O)NC(=O)[C@@H]1CCCN1C(=O)[C@H](CCCNC(=N)N)NC(=O)[C@@H](N)CC(N)=O)C(=O)N[C@@H](Cc1c[nH]cn1)C(=O)N[C@@H](Cc1c[nH]cn1)C(=O)NCCOCCOCCOCCOCCOCCOCCC(=O)N[C@@H](CCCCNC(=O)CC[C@H](C(=O)O)N1CCN(CC(=O)O)CCN(CC(=O)O)CC1)C(N)=O [[^68Ga]Ga-6, metal not drawn] (H-NRPDSAQFWLHH[PEG6]K(X1)-NH2)",17.7 ± 0.717 h,-3.86 ± 0.11,
"CSCC[C@H](NC(=O)[C@@H]1CCCN1C(=O)[C@@H](N)Cc1ccccc1)C(=O)N[C@@H](Cc1ccccc1)C(=O)N[C@@H](CC(N)=O)C(=O)N[C@@H](Cc1c[nH]cn1)C(=O)N[C@@H](Cc1c[nH]c2ccccc12)C(=O)N[C@@H](CCC(=O)O)C(=O)N[C@@H](CCC(N)=O)C(=O)N[C@@H](Cc1c[nH]c2ccccc12)C(=O)N1CCC[C@H]1C(=O)N1CCC[C@H]1C(=O)NCCOCCOCCOCCOCCOCCOCCC(=O)N[C@@H](CCCCNC(=O)CC[C@H](C(=O)O)N1CCN(CC(=O)O)CCN(CC(=O)O)CC1)C(N)=O [[^68Ga]Ga-7, metal not drawn] (H-FPMFNHWEQWPP[PEG6]K(X1)-NH2)",1.11 ± 0.05 h,-3.03 ± 0.2,
"CSCC[C@H](NC(=O)[C@@H]1CSSC[C@H](NC(=O)[C@@H](N)CCC(=O)O)C(=O)N2CCC[C@H]2C(=O)N[C@@H](CC(C)C)C(=O)N[C@@H](CO)C(=O)N[C@@H](Cc2c[nH]cn2)C(=O)N[C@@H](CC(=O)O)C(=O)NCC(=O)N[C@@H](Cc2ccc(O)cc2)C(=O)N[C@@H](CS)C(=O)N[C@@H](CC(C)C)C(=O)N[C@@H](Cc2c[nH]cn2)C(=O)N[C@@H](CC(=O)O)C(=O)NCC(=O)N[C@@H](C(C)C)C(=O)N1)C(=O)NCCOCCOCCOCCOCCOCCOCCC(=O)N[C@@H](CCCCNC(=O)CC[C@H](C(=O)O)N1CCN(CC(=O)O)CCN(CC(=O)O)CC1)C(N)=O [[^68Ga]Ga-8, metal not drawn] (H-ECPLSHDGYCLHDGVCM[PEG6]K(X1)-NH2; disulfide 2-16)",,,-3.16 ± 0.11
"CC[C@H](C)[C@@H]1NC(=O)[C@H](Cc2ccc(O)cc2)NC(=O)[C@H](CCSC)NC(=O)[C@H](CS)NC(=O)[C@H](C(C)C)NC(=O)CNC(=O)[C@H](CC(=O)O)NC(=O)[C@H](Cc2c[nH]cn2)NC(=O)[C@H](CC(C)C)NC(=O)[C@@H](NC(=O)[C@@H](N)Cc2ccc(O)cc2)CSSC[C@@H](C(=O)N[C@@H](CC(N)=O)C(=O)NCCOCCOCCOCCOCCOCCOCCC(=O)N[C@@H](CCCCNC(=O)CC[C@H](C(=O)O)N2CCN(CC(=O)O)CCN(CC(=O)O)CC2)C(N)=O)NC(=O)[C@H](C)NC(=O)[C@H](Cc2ccc(O)cc2)NC(=O)[C@H](CCCCN)NC(=O)[C@H](CC(=O)O)NC(=O)[C@H](CC(C)C)NC(=O)[C@H](C)NC(=O)[C@H](CCC(=O)O)NC1=O [[^68Ga]Ga-9, metal not drawn] (H-YCLHDGVCMYIEALDKYACN[PEG6]K(X1)-NH2; disulfide 2-19; N-terminus assumed)",,,-2.93 ± 0.08
"CC[C@H](C)[C@@H]1NC(=O)[C@H](Cc2ccc(O)cc2)NC(=O)CNC(=O)[C@H](C(C)C)NC(=O)[C@H](C(C)C)NC(=O)[C@@H](NC(=O)[C@@H](N)CC(N)=O)CSSC[C@@H](C(=O)N[C@@H](CCC(N)=O)C(=O)NCCOCCOCCOCCOCCOCCOCCC(=O)N[C@@H](CCCCNC(=O)CC[C@H](C(=O)O)N2CCN(CC(=O)O)CCN(CC(=O)O)CC2)C(N)=O)NC(=O)[C@H](CCCNC(=N)N)NC(=O)[C@H](CCC(=O)O)NC(=O)CNC1=O [[^68Ga]Ga-10, metal not drawn] (H-NCVVGYIGERCQ[PEG6]K(X1)-NH2; disulfide 2-11)",11.7 ± 0.703 h,-3.92 ± 0.09,
"C[C@H](NC(=O)[C@H](CCC(=O)O)NC(=O)[C@H](Cc1ccc(O)cc1)NC(=O)[C@H](CC(=O)O)NC(=O)[C@H](Cc1ccc(O)cc1)NC(=O)[C@H](Cc1ccccc1)NC(=O)CNC(=O)[C@@H]1CCCN1C(=O)CNC(=O)[C@H](CC(N)=O)NC(=O)[C@H](CCC(=O)O)NC(=O)CNC(=O)[C@H](CO)NC(=O)[C@@H](N)Cc1c[nH]c2ccccc12)C(=O)NCCOCCOCCOCCOCCOCCOCCC(=O)N[C@@H](CCCCNC(=O)CC[C@H](C(=O)O)N1CCN(CC(=O)O)CCN(CC(=O)O)CC1)C(N)=O [[^68Ga]Ga-11, metal not drawn] (H-WSGENGPGFYDYEA[PEG6]K(X1)-NH2)",9.37 ± 0.115 h,-3.98 ± 0.06,

# Other lines, results leading:
half-life [1],"logD [2, 3]",logD [2],Compound
4.928 ± 0.045 h,-3.44 ± 0.08,,"CC[C@H](C)[C@H](NC(=O)[C@@H](NC(=O)[C@H](CC(N)=O)NC(=O)[C@H](CCC(N)=O)NC(=O)[C@@H]1CCCN1C(=O)[C@@H](NC(=O)[C@H](Cc1ccc(O)cc1)NC(=O)CNC(=O)[C@H](Cc1ccc(O)cc1)NC(=O)[C@H](Cc1c[nH]c2ccccc12)NC(=O)[C@H](Cc1c[nH]cn1)NC(=O)[C@H](Cc1ccc(O)cc1)NC(=O)CCOCCOCCOCCOCCOCCOCCNC(=O)CC[C@H](C(=O)O)N1CCN(CC(=O)O)CCN(CC(=O)O)CC1)[C@@H](C)O)C(C)C)C(=O)O [[^68Ga]Ga-1, metal not drawn]"
,,-3.51 ± 0.22,"CC(C)C[C@H](NC(=O)CCOCCOCCOCCOCCOCCOCCNC(=O)CC[C@H](C(=O)O)N1CCN(CC(=O)O)CCN(CC(=O)O)CC1)C(=O)N[C@@H](C)C(=O)N[C@@H](CCCNC(=N)N)C(=O)N[C@@H](CC(C)C)C(=O)N[C@@H](CC(C)C)C(=O)N[C@H](C(=O)O)[C@@H](C)O [[^68Ga]Ga-2, metal not drawn]"
135 ± 5.12 h,-3.92 ± 0.09,,"CC[C@H](C)[C@H](NC(=O)[C@@H]1CCCN1C(=O)[C@H](Cc1ccc(O)cc1)NC(=O)[C@H](CO)NC(=O)CCOCCOCCOCCOCCOCCOCCNC(=O)CC[C@H](C(=O)O)N1CCN(CC(=O)O)CCN(CC(=O)O)CC1)C(=O)N1CCC[C@H]1C(=O)N[C@@H](CC(=O)O)C(=O)N[C@H](C(=O)O)[C@@H](C)O [[^68Ga]Ga-3, metal not drawn] ({X1-PEG6}-SYPIPDT-OH; C-terminus assumed)"
